Test results: EP0571928A1, “Acyclic Tocotrienol analogs in the treatment of hypercholesterolemia and hyperlipidemia” (Bristol-Myers Squibb Company, priority 1992, dated 1993)

Experiments:
[1] = tested on: cholesterol biosynthesis in HepG2 cells; assay: HepG2 cell culture model - 14C-acetate incorporation assay (cholesterol synthesis); format: cell-based; details: 3-4 hours incubation, 2-14C-acetate incorporation into digitonin-precipitable sterols, vs. vehicle controls
Procedure: HepG2 Cell Culture Model - 14C-Acetate Incorporation Assay
After 16 hours in LDS containing media, test compounds were added in dimethylsulfoxide vehicle (0.5% v/v final conc.) for an incubation period of 3-4 hours. Cholesterol synthesis was then directly determined by 2-14C-acetate (1.8 mCi/mmol, 0.5 µCi/ml) incorporation for 30 to 60 minutes (previously shown to be time-linear) into total digitonin-precipitable sterols. […] Percent inhibition was calculated from the average of duplicates vs. triplicate vehicle controls conducted simultaneously.

HMG-CoA reductase = assay: HepG2 cell culture model - HMG-CoA reductase suppression assay; format: cell-based; details: HepG2 cells, 4 hours of incubation at 37°, decrease in specific activity vs. vehicle controls
Procedure: HepG2 Cell Culture Model - HMG-CoA Reductase Suppression Assay
HMG-CoA reductase suppression in HepG2 cells was conducted by growing cells in RPMT-1640 plus 10% FBS on 100 mm plates, and when cells reached approximately 75% confluency, inducing with LDS (as described above) for 16 hours prior to assays. Compounds were added using dimethylsulfoxide vehicle (0.5% v/v, final) and after 4 hours of incubation at 37°, cells were harvested by scraping. Cell pellets were rinsed and lysed by sonication in 1.7 ml cold 50 mM imidazole-HCl, pH 7.2, 50 mM NaCl, 10 mM EDTA, 10 mM EGTA, 5mM DTT, and 40 µM leupeptin). Lysates were centrifuged at 150 x g and the supernatant was centrifuged at 100,000 x g in a Beckman airfuge to isolate the post-nuclear total membrane fraction. The membranes were resuspended in 50 mM imidazole-HCl, pH 7.2, 250 mM NaCl, 5 mM DTT, and 20 µM leupeptin and used for the assay of HMG-CoA reductase activity by the radiochemical procedure as described previously by Parker et al., J. Biol. Chem., 264: 4877-4887, (1989). Values were normalized for protein content by the Lowry method as cited previously (ibid). HMG-CoA reductase percent suppression was calculated as the decrease in specific activity of HMG-CoA reductase for treated cells vs. controls receiving vehicle. Averages of duplicate cell determinations assayed in duplicate were taken.

[2] = tested on: Normocholesterolemic Chickens; assay: In vivo evaluation in normocholesterolemic chickens - serum cholesterol pools; details: 6-week old male chickens, 50 ppm in diet for four weeks; for Total Cholesterol: serum
Procedure: (§1) In Vivo Biological Evaluation in Normocholesterolemic Chickens
(§2) Newborn male chicks (10 for each group) were raised on a standard corn-soybean based control diet for two weeks and then switched to either control or experimental diets for four weeks. Drug treatment consisted of the addition of test compounds to the corn-soybean-based diet at a concentration of 50 ppm. At the end of the feeding period, all the birds were fasted (36 hours) and refed (48 hours) to induce cholesterolgenic enzymes prior to sacrifice. The specific activity of HMGR, total serum cholesterol levels, LDL cholesterol and HDL cholesterol pools were determined (Table 6).

HMGR = assay: In vivo evaluation in normocholesterolemic chickens - specific activity of HMGR; details: 6-week old male chickens, 50 ppm in diet for four weeks
Procedure: as §1, §2

Molecule | inhibition at 10 µM ([1]; Homo sapiens, read-out: Sterol Biosynthesis % Inhibition 10µM) | HMG-CoA Reductase Suppression % 10µM (HMG-CoA reductase) | HDL Cholesterol [2] | LDL Cholesterol [2] | Total Cholesterol [2] | HMGR (HMGR) | Sterol Biosynthesis % Inhibition 10µM [1]
CC(C)=CCC/C(C)=C/CC/C(C)=C/CCCOc1ccc(NS(C)(=O)=O)cc1 [Example 25, N-[4-[(5,9,13-Trimethyl-4(E), 8(E),12-tetradecatrienyl)oxy]phenyl]methanesulfonamide] | 77% | 9% | 91 % of Control | 45 % of Control | 72 % of Control | 86 % of Control | 
γ-tocotrienol [reference compound] |  | 63% | 91 % of Control | 44 % of Control | 75 % of Control | 82 % of Control | 69%
